Data set [1] in a line: Measurement of hydroscopicity (weight change method). Type of data set: physicochemical. To be noted: sealed container, moisture of 70-85%, ambient temperature, 24 hours. As to the method: Hydroscopicity of salts from present disclosure was measured using a weight change method. The test samples were placed in a sealed container with moisture of 70-85% at ambient temperature for 24 hours and their weigh change was measured. All three hydrochloride salts of 5-ALA, 5-MAL and 5-HAL, and 5-ALA TCA were hygroscopic, their weight was increased by 25˜75%.

Data set [2] relates to upper surface of the tongue. The experiment in a line: Measurement of potential skin irritation/stimulation on tongue surface. Type of data set: in vivo. More on the design: key: A: no irritation; B: irritation; C: strong irritation; D: very strong irritation. To be noted: 3 mg on upper surface of the tongue for 3-5 minutes. The method, then:
The potential irritation/stimulation of test samples was carried out by applying 3 mg of each sample to the upper surface of the tongue for 3-5 minutes and then evaluated.

Data set [3] deals with A549 cells. The experiment in a line: Measurement of PpIX formation in A549 cells in vitro. It counts as cell-based, human. As to the method: Test samples were dissolved with sterile saline to a concentration of 100 mM as stock solution. The stock solution was diluted to desired concentrations with culture medium or phosphate buffered solution (PBS).
A549 cells (ATCC), derived from human lung carcinoma, were grown in F12 medium (Gibco) containing 4.5 g/L glucose, 10% FCS, and penicillin/streptomycin, at 37° C. and 6% CO2 in a humid environment. For measurement purposes, the cells were sub-cultured in 48-well or 96-well dishes to give 5×10^4 cells/well 24 hours prior to incubation with test salts. The cells were washed twice with PBS and test solutions were added to the culture. After cells were incubated for 4, 8 or 24 hours, the medium was detached and the plates were rinsed twice with PBS, and PpIX natural fluorescence was measured at 360±40 nm excitation and 620±40 nm emission (CytoFluor Series 4000, Perspective Biosystems, MA, USA). The experiment was conducted in triplets.

“5-Aminolevulinic Acid 2,2,2-Trichloroacetate [5-ALA TCA]”: the “appearance of sample after moisture exposure” value (from here on “appearance of sample”) in data set [1] is given as “turned to a liquid due to deliquescence”. Moreover, the “irritation/stimulation on tongue surface” value in data set [2] (participant 1), in data set [2] (participant 2), in data set [2] (participant 3) and in data set [2] (participant 4) was “B” throughout. In addition, the “Activity (relative activity to induce porphyrin formation)” value in data set [3] (10 mM, 4 hrs) is 1.00 ± 0.02; in data set [3] (10 mM, 8 hrs) it was 1.30 ± 0.06; in data set [3] (10 mM, 24 hrs), 2.50 ± 0.17.
Take `Cl.NCC(=O)CCC(=O)O` [5-ALA HCl, 5-aminolevulinic acid hydrochloride, reference compound]: in data set [1], the “appearance of sample” value is “turned to a liquid due to deliquescence”. For the same compound, the “irritation/stimulation on tongue surface” value is listed as “D” in data set [2] (participant 1), “C” in data set [2] (participant 2), “D” in data set [2] (participant 3) and “C” in data set [2] (participant 4). The “Activity (relative activity to induce porphyrin formation)” value came to 1.00 in data set [3] (10 mM, 4 hrs); 1.42 ± 0.04 in data set [3] (10 mM, 8 hrs); 2.35 ± 0.19 in data set [3] (10 mM, 24 hrs).
For the compound `CCCCCCOC(=O)CCC(=O)CN.Cl` [5-HAL HCl, Hexyl 5-aminolevulinate hydrochloride, reference compound], the “appearance of sample” value in data set [1] is reported as “turned to a liquid due to deliquescence”. Also, the “irritation/stimulation on tongue surface” value in data set [2] (participant 1) was “B”; in data set [2] (participant 2), “C”; in data set [2] (participant 3), “C”; in data set [2] (participant 4), “B”. The “Activity (relative activity to induce porphyrin formation)” value is 1.20 ± 0.15 in data set [3] (0.5 mM, 4 hrs); 1.57 ± 0.08 in data set [3] (0.5 mM, 8 hrs); 2.92 ± 0.30 in data set [3] (0.5 mM, 24 hrs); about 2 in data set [3] (1 mM, 4 hrs); about 4 in data set [3] (1 mM, 8 hrs); about 10 in data set [3] (1 mM, 24 hrs).
`COC(=O)CCC(=O)CN.Cl` [5-MAL HCl, methyl 5-aminolevulinate hydrochloride, reference compound]: in data set [1], the “appearance of sample” value is “turned to a liquid due to deliquescence”. The “irritation/stimulation on tongue surface” value in data set [2] (participant 1), in data set [2] (participant 2), in data set [2] (participant 3) and in data set [2] (participant 4) was “C” throughout. Besides, the “Activity (relative activity to induce porphyrin formation)” value in data set [3] (10 mM, 4 hrs) amounted to 1.27 ± 0.04; in data set [3] (10 mM, 8 hrs) it was 1.60 ± 0.12; in data set [3] (10 mM, 24 hrs), 2.22 ± 0.16.
On to “Hexyl 5-Aminolevulinate 2,2,2-Trichloroacetate [5-HAL TCA]”, for which the “appearance of sample” value in data set [1] is given as “unchanged as crystalline solid”. Besides, the “weight change (weight increase)” value in data set [1] was “remained unchanged”. Also, the “irritation/stimulation on tongue surface” value in data set [2] (participant 1) was “B”; in data set [2] (participant 2), “B”; in data set [2] (participant 3) it was “A”; in data set [2] (participant 4) it was “B”. Moreover, the “Activity (relative activity to induce porphyrin formation)” value in data set [3] (0.5 mM, 4 hrs) is 1.15 ± 0.05; in data set [3] (0.5 mM, 8 hrs), 1.57 ± 0.11; in data set [3] (0.5 mM, 24 hrs) it was 2.72 ± 0.10; in data set [3] (1 mM, 4 hrs), about 2; in data set [3] (1 mM, 8 hrs) it was about 4; in data set [3] (1 mM, 24 hrs), about 10.
Turning to “Methyl 5-Aminolevulinate 2,2,2-Trichloroacetate [5-MAL TCA]”, in data set [1], the “appearance of sample” value was “unchanged as crystalline solid”. Further, in data set [1], the “weight change (weight increase)” value was under 5%. The “irritation/stimulation on tongue surface” value in data set [2] (participant 1), in data set [2] (participant 2), in data set [2] (participant 3) and in data set [2] (participant 4) was “B” each time. Also, the “Activity (relative activity to induce porphyrin formation)” value in data set [3] (10 mM, 4 hrs) is 1.20 ± 0.04; in data set [3] (10 mM, 8 hrs) it was 1.25 ± 0.02; in data set [3] (10 mM, 24 hrs) it was 2.20 ± 0.16.
